LC retention time data for 34 compounds are collected here from the RepoRT retention time repository (doi:10.1016/j.foodchem.2021.129757).

The nature of one data set: RP, 150 × 2.1 mm, 2.6 µm, 40 °C, 0.35 mL/min, estimated dead time 0.94 min; A: water + 0.1% formic acid, pH 3; B: acetonitrile + 0.1% formic acid, pH 3; gradient (min/%B) 0/0 1/5 7/45 8.5/80 10.5/80 11/5 12/5. The note with it: stereoisomer not certain.
With `O=C(O)c1cc(=O)c2ccccc2[nH]1` [kynurenic acid], the LC retention time is 4.06 min.

Turning to `Cc1cc(=O)oc2cc(O)ccc12` [4-methylumbelliferone], the LC retention time was 6.46 min. Turning to `O=C1CC(c2ccc(O)cc2)Oc2cc(OC3OC(CO)C(O)C(O)C3O)cc(O)c21` (stereo not drawn) [Naringenin 7-O-glucoside], the LC retention time was 6.17 min. Still for that read-out and setting: to `COc1cc(-c2oc3cc(O)cc(O)c3c(=O)c2OC2OC(CO)C(O)C(O)C2O)cc(OC)c1O` (stereo not drawn) [Syringetin-3-glucoside] belongs 6.17 min; to `O=c1cc(O)c2ccccc2o1` [4-hydroxycoumarin], 6.59 min. For the compound `NCCc1c[nH]c2ccc(O)cc12` [Serotonin], the LC retention time was 1.45 min. Consider `OCCc1c[nH]c2ccccc12` [Tryptophol], for which the LC retention time was 6.48 min. Turning to `O=c1cc(-c2ccc(O)c(O)c2)oc2c(C3OC(CO)C(O)C(O)C3O)c(O)cc(O)c12` (stereo not drawn) [Orientin], the LC retention time was 5.29 min. The same measure, in the same setting: as for `COc1cc2c(CCNC(C)=O)c[nH]c2cc1O` [6-Hydroxymelatonin], the figure is 5.05 min. For the compound `O=c1c(OC2OC(CO)C(O)C(O)C2O)c(-c2ccc(O)cc2)oc2cc(O)cc(O)c12` (stereo not drawn) [Kaempferol-3-O-glucoside], the LC retention time was 6.11 min. As to `COc1ccc2[nH]cc(CC(=O)O)c2c1` [5-Methoxyindoleacetic acid], the LC retention time is 6.29 min. For `COc1cccc(O)c1O` [3-Methoxycatechol], the LC retention time is 4.56 min.

`O=C(O)CNC(=O)c1ccccc1O` [2-Hydroxyhippuric acid]: the LC retention time is 5.38 min. With `O=C(O)c1cc2ccccc2[nH]1` [2-Indolecarboxylic acid], the LC retention time was 6.07 min. For the compound `O=C(O)CNC(=O)c1ccco1` [2-Furoylglycine], the LC retention time is 2.35 min.

For `O=S(=O)(O)c1[nH]c2ccccc2c1CCO` [Tryptophol-2-sulfonate], the LC retention time is 4.57 min. On to `NC(=O)Cc1c[nH]c2ccccc12` [3-Indoleacetamide], for which the LC retention time was 5.15 min. Take `COC(=O)Cc1c[nH]c2ccccc12` [Methyl indole acetate]: the LC retention time is 8.34 min. As for `CC1OC(OCC2OC(Oc3c(-c4ccc(O)cc4)oc4cc(O)cc(O)c4c3=O)C(O)C(O)C2O)C(O)C(O)C1O` (stereo not drawn) [Kaempferol 3-O-rutinoside], the LC retention time was 5.92 min.

Consider `O=C(O)C(O)CCc1ccccc1` (stereo not drawn) [2-hydroxy-4-phenylbutyric acid], for which the LC retention time is 6.6 min. Same read-out and setting: to `COc1ccc2[nH]cc(CCNC(C)=O)c2c1` [Melatonin] belongs 6.35 min. Consider `O=c1c(OC2OC(CO)C(O)C(O)C2O)c(-c2ccc(O)c(O)c2)oc2cc(O)cc(O)c12` (stereo not drawn) [Quercetin-3-O-galactoside], for which the LC retention time was 5.74 min.

Regarding `CC(C=CC1(O)C(C)=CC(=O)CC1(C)C)=CC(=O)O` (stereo not drawn) [Abscisic acid], the LC retention time is 7.12 min.

The nature of another data set: RP, Phenomenex Kinetex EVO C18, 100 × 2.1 mm, 2.6 µm, 40 °C, 0.4 mL/min, estimated dead time 0.55 min; A: water + 0.2% formic acid; B: acetonitrile + 0.2% formic acid; gradient (min/%B) 0/5 0.5/5 7/95 8/95 8.5/5 12/5. The note with it: stereoisomer not certain.
With `COc1cc(C=CC(=O)NCC(=O)O)ccc1O` [Feruloylglycine], the LC retention time was 4.33 min. The same measure, in the same setting: as for `COc1ccc(C(=O)O)cc1OC1OC(C(=O)O)C(O)C(O)C1O` (stereo not drawn) [Isovanillic acid-3-glucuronide], the figure is 2.34 min; as for `O=C(O)c1ccc(O)c(OS(=O)(=O)O)c1` [protocatechuic acid-3-O-sulfate], 2.38 min.

For `O=C(O)c1ccc(OC2OC(C(=O)O)C(O)C(O)C2O)c(O)c1` (stereo not drawn) [Protocatechuic acid-4-glucuronide], the LC retention time was 1.03 min. Same read-out and setting: to `O=C(O)c1ccc(OC2OC(C(=O)O)C(O)C(O)C2O)cc1` (stereo not drawn) [Hydroxybenzoic acid-4-glucuronide] belongs 1.06 min; to `O=C1CC(c2ccc(OC3OC(C(=O)O)C(O)C(O)C3O)cc2)Oc2cc(O)cc(O)c21` (stereo not drawn) [Naringenin-4'-O-glucuronide], 5.18 min.

The nature of another data set: RP, Waters ACQUITY UPLC HSS T3, 100 × 2.1 mm, 50 °C; A: water + 0.1% formic acid, pH 3; B: 30% methanol + 70% acetonitrile + 0.1% formic acid, pH 3; gradient (min/%B) 0/5 1/8 2/15 3/40 4/70 4.5/100 5/100 6.4/100 6.6/5 6.8/5 7/5. The following applies: stereoisomer not certain.
As for `O=C(O)CCc1c[nH]c2ccccc12` [3-Indolepropionic acid], the LC retention time is 3.76 min. The same measure, in the same setting: as for `COc1cc(-c2oc3cc(O)cc(O)c3c(=O)c2O)ccc1OC1OC(C(=O)O)C(O)C(O)C1O` (stereo not drawn) [Isorhamnetin 4'-O-glucuronide], the figure is 3.58 min.

The next data set is described as follows: RP, Waters ACQUITY UPLC HSS T3, 100 × 2.1 mm, 1.8 µm, 30 °C, 0.4 mL/min, estimated dead time 0.55 min; A: water + 0.1% formic acid, pH 3; B: acetonitrile + 0.1% formic acid, pH 3; gradient (min/%B) 0/0 2/0 15/100 22/100 22.1/0 26/0. The following applies: stereoisomer not certain.
Turning to `O=c1ccc2ccc(O)cc2o1` [Umbelliferone], the LC retention time was 9.65 min.

The next data set in a line: RP, Agilent ZORBAX Eclipse XDB-C18, 100 × 2.1 mm, 1.8 µm, 50 °C, 0.4 mL/min, estimated dead time 0.55 min; A: water + 0.1% formic acid, pH 3; B: methanol + 0.1% formic acid, pH 3; gradient (min/%B) 0/2 10/100 14.5/100 14.51/2 16.5/2. The note with it: stereoisomer not certain.
In the case of `O=C(O)CCc1c[nH]c2ccccc12` [3-Indolepropionic acid], the LC retention time is 5.54 min. On the same count and under the same terms, as for `CCC=CCC1C(=O)CCC1CC(=O)OC` (stereo not drawn) [Methyl jasmonate], the figure is 7.77 min; as for `COc1cccc(O)c1O` [3-Methoxycatechol], 3.2 min.

Another data set can be described thus: RP, Waters ACQUITY UPLC BEH C18, 100 × 2.1 mm, 1.7 µm, 65 °C, 0.4 mL/min, estimated dead time 0.55 min; A: water + 0.1% formic acid, pH 3; B: 80% acetonitrile + 20% acetone + 0.1% formic acid, pH 3; gradient (min/%B) 0/0 5/100 5.5/0 6/0. The following applies: stereoisomer not certain.
For the compound `O=C(O)CCc1c[nH]c2ccccc12` [3-Indolepropionic acid], the LC retention time was 2.64 min. Same read-out and setting: as for `O=C(O)CNC(=O)c1ccco1` [2-Furoylglycine], the figure is 1.51 min.

Another data set can be described thus: RP, Waters ACQUITY UPLC BEH Shield RP18, 150 × 2.1 mm, 1.7 µm, 40 °C, 0.4 mL/min, estimated dead time 0.83 min; A: water + 0.1% formic acid, pH 3; B: acetonitrile + 0.1% formic acid, pH 3; gradient (min/%B) 0/0 30/50 31/100 37/100 37.1/0. The following applies: stereoisomer not certain.
For `O=c1c(OC2OC(CO)C(O)C(O)C2O)c(-c2ccc(O)cc2)oc2cc(O)cc(O)c12` (stereo not drawn) [Kaempferol-3-O-glucoside], the LC retention time was 14.7 min.

The next data set in a line: RP, Agilent ZORBAX RRHD Eclipse Plus C18, 50 × 2.1 mm, 1.8 µm, 30 °C, 0.4 mL/min, estimated dead time 0.28 min; A: water + 0.1% formic acid, pH 3; B: acetonitrile + 0.1% formic acid, pH 3; gradient (min/%B) 0/1 5/10 8/25 9.1/99 10/99 12/1. The following applies: stereoisomer not certain.
Regarding `O=C(NC(O)C(=O)O)c1ccccc1` (stereo not drawn) [Alpha-hydroxyhippuric acid], the LC retention time was 2.97 min.

As for `O=C(O)CNC(=O)c1ccccc1O` [2-Hydroxyhippuric acid], the LC retention time is 6.83 min.

Another data set in a line: RP, Agilent ZORBAX RRHD Eclipse Plus C18, 50 × 2.1 mm, 1.8 µm, 30 °C, 0.4 mL/min, estimated dead time 0.28 min; A: water + 0.1% formic acid, pH 3; B: acetonitrile + 0.1% formic acid, pH 3; gradient (min/%B) 0/1 5/10 8/25 9.1/99 10/99 12/99. The note with it: stereoisomer not certain.
On to `O=C(NC(O)C(=O)O)c1ccccc1` (stereo not drawn) [Alpha-hydroxyhippuric acid], for which the LC retention time was 1.37 min. In the case of `O=C(O)CNC(=O)c1ccccc1O` [2-Hydroxyhippuric acid], the LC retention time is 6.69 min.

The nature of another data set: RP, Phenomenex Synergi Hydro-RP, 250 × 2 mm, 4 µm, 25 °C, 0.2 mL/min, estimated dead time 2.5 min; A: water + 0.1% formic acid, pH 3; B: acetonitrile + 0.1% formic acid, pH 3; gradient (min/%B) 0/0.5 7/0.5 12/12.5 25/16.3 47/35 48/65 50/65 50.1/0.5. The following applies: stereoisomer not certain.
For `CC1OC(OCC2OC(Oc3c(-c4ccc(O)cc4)oc4cc(O)cc(O)c4c3=O)C(O)C(O)C2O)C(O)C(O)C1O` (stereo not drawn) [Kaempferol 3-O-rutinoside], the LC retention time was 37 min.
